The record followed here is PubChem BioAssay AID602462 (NMMLSC, 2012).

Calls of active or inactive are those of the source.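 Rule for the calls: active = compounds passing through the artificial lipid membrane faster than 100 units at the neutral pH 7.4; inactive = the rest.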

For the series, the system named is PAMPA double-sink, GIT-0 lipid, UV read-out. Nature of the series: passive membrane permeability of hits, PAMPA, late-stage follow-up, ADME assay for GPR30 and estrogen receptor ligands, biophysical, double-sink PAMPA, aqueous buffer, pH 5.0/6.2/7.4 (AID 602462). The conditions noted are these: stronger effect = higher value; for permeability Pe pH 5.0: measured here: permeability at pH 5.0; for permeability Pe pH 6.2: measured here: permeability at pH 6.2.

Consider `COc1cc([N+](=O)[O-])cc2c1NC(C1CC=CCC1)C1CC=CC21` (stereo unspecified), for which the permeability Pe pH 7.4 was 117 10^-6 cm/s, the permeability Pe pH 5.0 was 44 10^-6 cm/s and the permeability Pe pH 6.2 is 120 10^-6 cm/s.
The corresponding values for `CC(=O)c1ccc2c(c1)[C@@H]1C=CC[C@@H]1[C@H](c1cc3c(cc1Br)OCO3)N2` are 0 10^-6 cm/s (inactive), 0 10^-6 cm/s and 0 10^-6 cm/s.
